Values joined by “and” are separate entries in the source; they are usually repeats but may differ in a detail not shown here. Identical values can stand only once.

The term Log P denotes a log measure of how a compound divides between an organic and an aqueous phase.

Series [1] can be described thus: In vitro penetration and permeation via excised porcine mammary papilla, Franz diffusion cell (Example 1). The class given is in vitro ADME. On the procedure:
Drug penetration and permeation via mammary papillae was performed in a Franz diffusion cell using excised porcine mammary papilla. […] The transport studies were performed at time points for 6 and 48 hours.
In a separate study to evaluate the drug retention and disposition, the treatment was removed after 6 hours and the study was continued until the 48 hour mark. Samples were withdrawn from the receptor compartment at different time points. At the end of study, the mammary papilla was cut to 2 mm thick cylindrical sections from the top to the base of the tissue and was digested using a tissue solubilizer. The drug concentrations were determined by liquid scintillation counting.
Methods for the preparation of porcine mammary papilla. Freshly excised strips of porcine mammary papilla (6-7 months old animals) were washed with deionized water followed by removal of subcutaneous fatty tissue using a scalpel. Keeping the mammary papilla in the center, 3 cm×3 cm sized specimens of the tissue were excised, subcutaneous fat tissue was removed, and the tissue was frozen at −20° C. until used for the drug penetration and permeation studies.
Breast tissue was mounted between the two compartments of a vertical Franz diffusion cell (FDC) with breast tissue sandwiched between donor and receptor compartments. A mammary papilla was set in upright position inside the donor compartment of Franz diffusion cell. […] Samples were withdrawn from the receptor at different time points for 48 hours to determine drug concentration by radioactive count. At the end of 48 hours, tissue samples were taken for drug content determination. […]
In a second study, the mammary papillae in Franz diffusion cells were treated with the drugs for 48 hours and the permeation was followed through 48 hours. This analysis provided information regarding any saturation from drug treatment for extended periods of time. […]
Extraction of drugs from the mammary papilla. At the end of permeation study, the mammary papilla was removed from Franz diffusion cell and thoroughly washed with deionized water and blotted dried. Approximately 2 mm thick sections of the tissue were taken using a scalpel. These sections were homogenized, the drug was extracted, and the drug concentration was determined by radioactive counts.

The nature of series [2]: Transmammary permeation across porcine mammary papilla with and without removal of the keratin plug (Experiments 7-10). The class given is in vitro ADME.
Excerpt: Keratin plug was removed from human and porcine mammary papilla using an alcoholic cotton swab. The swab was gently rubbed on the surface of the mammary papilla. The mammary papilla was observed under the microscope to confirm the removal of the plug from the surface and to confirm that epidermis of the mammary papilla was not damaged during this procedure.
The drug solutions were spiked with radioactive substances. […] Receptor medium was PBS with 7.4 pH.
(§1) Mammary papillae tissues were thawed. Keratin plugs were removed from the mammary papilla tissues using swabs with ethanol. […] The drug solutions were spiked with radioactive substances. […] Receptor medium was PBS with 7.4 pH.
as §1
Mammary papillae tissues were thawed. Keratin plugs were removed from the mammary papilla tissues using swabs with ethanol. […] The drug solutions were spike with radioactive substances. […] Receptor medium was PBS with 7.4 pH.

The nature of series [3]: Transmammary permeation across human mammary papilla with and without removal of the keratin plug (Experiments 12-18). The series is classed as in vitro ADME. The note with it: for lag time / cumulative amount permeated / Drug retention in tissue / Flux: value (SEM); for cumulative amount permeated: 48 hours; for Drug retention in tissue: end of 48 hours; for Increase in permeation across the tissues upon removal of the keratin plugs: human mammary papilla. The source says: Mammary papillae tissues were thawed. […] The drug solutions were spiked with radioactive substances. […] Receptor medium was PBS with 7.4 pH. […] Results may be seen in FIG. 37 and Table 13.
Mammary papillae tissues were thawed. […] The drug solutions were spiked with radioactive substances. […] Receptor medium was PBS with 7.4 pH. […] Results may be seen in FIG. 38 and Table 15.
Mammary papillae tissues were thawed. […] The drug solutions were spiked with radioactive substances. […] Receptor medium was PBS with 7.4 pH. […] Results may be seen in FIG. 39 and Table 17.
Mammary papillae tissues were thawed. […] The drug solutions were spiked with radioactive substances. […] Receptor medium was PBS with 7.4 pH. […] Results may be seen in FIG. 40.
Mammary papillae and skin tissues were thawed. […] The drug solutions were spiked with radioactive substances. […] Receptor medium was PBS with 7.4 pH. […] Results may be seen in FIG. 41 and Table 20.
Mammary papillae and skin tissues were thawed. […] The drug solutions were spiked with radioactive substances. […] Receptor medium was PBS with 7.4 pH. […] Results may be seen in FIG. 42 and Table 22.
Mammary papillae tissues were thawed. […] The drug solutions were spiked with radioactive substances. […] Receptor medium was PBS with 7.4 pH. […] Results may be seen in FIG. 43 and Table 24.

Series [4] can be described thus: Permeation across human breast skin (Experiments 16-18). The series is classed as in vitro ADME. The source says:
Mammary papillae and skin tissues were thawed. Keratin plugs were removed from the mammary papilla tissues using swabs with ethanol. […] The drug solutions were spiked with radioactive substances. […] Receptor medium was PBS with 7.4 pH. […] Results may be seen in FIG. 41 and Table 20.
Mammary papillae and skin tissues were thawed. Keratin plugs were removed from the mammary papilla tissues using swabs with ethanol. […] The drug solutions were spiked with radioactive substances. […] Receptor medium was PBS with 7.4 pH. […] Results may be seen in FIG. 42 and Table 22. […]

The conditions of series [5]: cited from earlier work.
The nature of series [6]: Dye penetration study of mammary papilla, confocal and fluorescence microscopy. The class given is in vitro ADME, porcine. The note with it: 12 hours treatment; 2 mm section from middle of papilla; confocal laser scanning microscopy. How it is done: For dye penetration studies, 10 mM of the dye sulforhodamine B (SRB) in 1:1 of ethanol:phosphate buffer and 0.32 mM of Nile Red (NR) in propylene glycol were applied on the mammary papillae for 12 hours. At the end of the study, the tissue was washed, cut into 2 mm thick sections as described earlier and placed on a glass slide for confocal microscopy study. Confocal images of mammary papilla were taken from approximately […] below the surface of the mammary papilla.
Mammary papillae were treated with each dye for 12 hours. Then, starting from tip, 2 mm thick sections of papillae were taken (FIG. 8). Section B was taken from middle of mammary papilla and studied with confocal laser scanning microscopy. From this 2 mm thick section, xy dimensional images were taken at different depths starting from 0 to 500 μm. Because xy views are taken at different depths (the dimension z), these are xyz images. The upper image is an xyz view after treatment with hydrophilic dye SRB. […] The xz views of the mammary papillae were also analyzed.
Fluorescence Microscopy. To verify the confocal data, cryo-sectioning of mammary papillae was performed after 12 hours treatment with the dyes. […] Sections from various different depths of the papilla and studied by fluorescence microscopy. […]

Setting [7] is: excised porcine mammary papilla, saturated solution in ethanol:water (50:50), 48 h, mean ± SEM, n=3.
Setting [8] is: porcine mammary papilla, end of 48 h, mean ± SEM, n=3.
Setting [9] is: EST 15 mg/ml, human mammary papilla with keratin plug removal.
Setting [10] is: EST 15 mg/ml, human mammary papilla without keratin plug removal.
Where [11] appears, read: dextran 10 mg/ml, human mammary papilla with keratin plug removal, *Values multiplied by 1000.
Setting [12] is: dextran 10 mg/ml, human mammary papilla without keratin plug removal, *Values multiplied by 1000.
The mark [13] stands for this setting: porcine mammary papilla after keratin plug removal, 48 hours, n=4.
Where [14] appears, read: porcine mammary papilla after keratin plug removal, end of 48 hours.
Where [15] appears, read: porcine mammary papilla after keratin plug removal, end of 48 hours, n=4.

The molecule `C[C@]12CC[C@@H]3c4ccc(O)cc4CC[C@H]3[C@@H]1CC[C@@H]2O` [EST, estradiol] returned a Lag time in series [1] (excised porcine mammary papilla, Franz diffusion cell, saturated solution in ethanol:water (50:50), 48 h, mean ± SEM, n=3) of 7.07 ± 0.29 h. In addition, in series [1] (setting [7]), the Cumulative % permeated is recorded as 1.03 ± 0.08%, the “Flux × 10^3” value worked out at 2.57 ± 0.15 μM · cm^2 · hr^−1, the “Permeability coefficient × 10^3” value is reported as 0.05 ± 0.002 cm^2 · hr^−1 and the cumulative amount permeated was found to be 0.23 ± 0.02 µM. Besides, in series [1] (setting [8]), the Cumulative % retained is given as 4.52 ± 0.59%; the “Drug extraction from 2 mm thick mammary papilla sections, Section A (tip)” value turned out to be 5.45 ± 0.49 µM/g; the “Drug extraction from 2 mm thick mammary papilla sections, Section B” value came out at 3.63 ± 0.26 µM/g; the “Drug extraction from 2 mm thick mammary papilla sections, Section C” value was 2.53 ± 0.31 µM/g. Further, in series [1] (setting [8]), the “Drug extraction from 2 mm thick mammary papilla sections, Section D (base)” value stood at 1.55 ± 0.53 µM/g. The “Permeation across mammary papilla (in words)” value in series [1] (porcine mammary papilla, treatment up to 48 hours) was “significant EST transport across the mammary papilla”. Besides, in series [2] (porcine mammary papilla, donor in 50:50 ethanol:water, 48 hours), the “Change of permeation upon removal of the keratin plugs (in words)” value is “increases significantly”. Also, the lag time in series [3] (EST 15 mg/ml in 50:50 ethanol:water, human mammary papilla with keratin plug removal) is given as 2.08 (0.28) hours. Moreover, in series [3] (setting [9]), the cumulative amount permeated is listed as 2.62 (0.97) μmole, the “Drug retention in tissue” value is 6.25 (2.12) umole/g of tissue and the Flux was 0.09 (0.03) μmole/cm^2/hour. Moreover, in series [3] (setting [10]), the cumulative amount permeated is given as 0.58 (0.06) μmole, the “Drug retention in tissue” value is 1.06 (0.04) umole/g of tissue, the Flux was 0.01 (0.00) μmole/cm^2/hour and the lag time was 7.02 (0.94) hours. For the same molecule, in series [3] (after keratin plug removal, 48 hours (Experiment 15)), the “Permeation profile via human vs porcine mammary papillae” value is given as “similar”. In addition, the “Increase in permeation across the tissues upon removal of the keratin plugs” value in series [3] was “more than 10 fold”. Besides, the lag time in series [4] (EST 15 mg/ml in 50:50 ethanol:water, human breast skin, value (SEM)) is 0.56 (0.22) hours. Also, the cumulative amount permeated in series [4] (EST 15 mg/ml, human breast skin, 48 hours, value (SEM)) is reported as 2.10 (0.16) μmole. The “Drug retention in tissue” value in series [4] (EST 15 mg/ml, human breast skin, end of 48 hours, value (SEM)) was 2.94 (0.30) umole/g of tissue. For the same molecule, the Flux in series [4] (EST 15 mg/ml, human breast skin, value (SEM)) was 0.07 (0.01) μmole/cm^2/hour. Also, the “Log P” value in series [5] is on record as 3.6.
Consider `CCN(CC)c1ccc2nc3c4ccccc4c(=O)cc-3oc2c1` [NR, Nile Red], for which the “Distribution of dye fluorescence in mammary papilla” value in series [6] was “observed only in and around the ducts”. Moreover, in series [5], the “Log P” value is on record as 3.8.
For the molecule `CCN(CC)c1ccc2c(-c3ccc(S(=O)(=O)O)cc3S(=O)(=O)[O-])c3ccc(=[N+](CC)CC)cc-3oc2c1` [SRB, sulforhodamine B], the “Distribution of dye fluorescence in mammary papilla” value in series [6] was “distribution of the dye in both the ducts and in the surrounding tissue”. Further, the “Log P” value in series [5] is −0.74.
For dextran, the “Increase in permeation upon removal of the keratin plugs” value in series [2] (porcine mammary papilla, 10 mg/ml in 50:50 ethanol:water, 48 hours) is given as “approximately 2 folds”. Besides, the lag time is reported as 9.63 (0.90) hours in series [3] (dextran 10 mg/ml in 50:50 ethanol:water, human mammary papilla with keratin plug removal); 14.74 (1.41) hours in series [3] (dextran 10 mg/ml, human mammary papilla without keratin plug removal); 30.15 (3.04) hours in series [4] (dextran 10 mg/ml in 1:1 ethanol:water, human breast skin, value (SEM)). Further, the cumulative amount permeated is listed as 119.42 (19.35)* μmole in series [3] (setting [11]) and 16.54 (7.32)* μmole in series [3] (setting [12]). In addition, the results for the “Drug retention in tissue” value in series [3] (setting [11]) and in series [3] (setting [12]) were 789.33 (99.11)* umole/g of tissue and 89.88 (19.26)* umole/g of tissue, respectively. Further, the “Increase in permeation across the tissues upon removal of the keratin plugs” value in series [3] is recorded as “more than 7 fold”. For the same molecule, the “Penetration via human breast skin (in words)” value in series [4] (48 hrs treatment) is “no penetration of dextran even with 48 hrs treatment”.
inulin: the Transmammary flux in series [2] (porcine mammary papilla) is listed as 0.33 μg/sq·cm/h. Also, the lag time in series [2] (porcine mammary papilla after keratin plug removal, 10 mg/ml in 50:50 ethanol:water, n=4) was 16.7 h and 16.78 h. In series [2] (setting [13]), the “Drug permeation (% of applied dose)” value is recorded as 0.37 % of applied dose and the cumulative amt. permeated was 0.0037 µmol. In addition, in series [2] (setting [14]), the “Amount permeated across the tissue” value was 18.37 µg and the “Amount retaining into the tissue” value is 41.28 µg. Besides, in series [2] (setting [15]), the “Drug retention in tissue (% of applied dose)” value is reported as 0.83 % of applied dose, the Skin retention is listed as 0.023 umole/g of tissue and the “Total drug retention in tissue” value is 0.0083 µmol. This molecule also had a Flux in series [2] (porcine mammary papilla after keratin plug removal, n=4) of 0.000066 μmole/sq.cm/hr.
